Measurements from patent US20040014726A1, “Method for the preparation of a pharmaceutical composition, and its use” (priority 2000, published 2004).

Columns and labels:
[1] = tested on: osteoclast formation in mouse bone marrow culture; assay: Mouse bone marrow culture, osteoclast formation (TRAP-positive multinucleated cells); assay type: cell-based
Experimental: This culture system is the most used method to study osteoclast differentiation (Takahashi et al. 1988a). Mouse marrow cells can be induced to form active osteoclasts in 6-8 days in the presence of an osteotropic factor, such as 1,25(OH)2D3, parathyroid hormone, interleukin-1 or prostaglandin E2 (Takahashi et al. 1988b, Shinar et al. 1990, Collins and Chambers 1992, Jimi et al. 1999). Typically, 10^6 cells are cultured/ml of media for 6 days. Then, the cells are fixed with 3% paraformaldehyde in PBS and stained for osteoclast marker, such as tartrate-resistant acid phosphatase (TRAP). Sigma's immunohistochemical kit can be used. Multinucleated, TRAP-positive cells containing at least 3 nuclei are counted as osteoclasts (Hentunen et al. 1998).
(§1) The concentration range of the test compound in these assays was 10^−10-10^−5 M.

[2] = tested on: osteoclast formation in spleen cell culture; assay: Mouse spleen cell culture, osteoclast formation; assay type: cell-based
From the text: as §1

[3] = tested on: mouse osteoprogenitor cells (preosteoblasts) supporting osteoclast formation; assay: Mouse spleen cell/osteoblast co-culture with pre-treated osteoprogenitor cells; assay type: cell-based; settings: osteoprogenitor cells incubated with 10^-5 M for 24 h, then co-culture with spleen cells; data not shown
From the text: Bone marrow stromal cells have long been known as a source of osteoprogenitor cells (Owen and Friedenstein 1988). […] These preosteoblasts can be further induced to form active osteoblasts by continuing the cultures for two more weeks in the presence of estrogen (17β-estradiol). During this culture period cells begin to express increasing levels of osteoblast markers, such as alkaline phosphatase, type I collagen and osteocalcin, and finally they are able to form bone. Bone formation is detected by bone nodule formation and calcium deposition in the cultures (Qu et al. 1998).
A co-culture system was developed, which contains mouse spleen cells and primary mouse osteoprogenitor cells. Osteoprogenitor cells were prepared from mouse marrow as described in section C.
When these two cell types were cultured in the presence of 1,25(OH)2D3, several osteoclasts were formed. Spleen cells alone with 1,25(OH)2D3 were not able to differentiate into osteoclasts. Mouse osteoprogenitor cells, which were able to support osteoclast formation, were incubated first with 10^−5 M of the said test compound for 24 h and then these cells were used in the co-culture with mouse spleen cells. […] This further supports the idea, that the test compound has direct inhibitory effect on osteoclast precursors.

isolated rat osteoclasts = assay: Rat osteoclast culture on bovine bone slices; assay type: cell-based
Experimental: Osteoclasts can be isolated from long bones of several species and they are cultured on bone or dentine slices to study their resorption activity (Boyde et al. 1984, Chambers et al 1984). Mostly, either rat or rabbit osteoclasts are used. They are isolated from new-born animals and cultured for 1-2 days. The resorption activity is determined either by counting the number of resorption pits on bone/dentine slices or the total resorption area is measured using a phase contrast microscope and image analysis system. We are routinely using isolated rat osteoclasts and we culture them on bovine bone slices for two days, after which we fix the cells. Cells are stained with toluidine blue and counted under the microscope (Arnett and Dempster 1987, Lakkakorpi et al. 1989). Then the cells are removed by brushing them and the resorption pits are stained with WGA lectin, which binds to resorption lacuna in the bone slice. The number and area of pits are quantified (Selander et al. 1994).
as §1

ovariectomized rats = assay: Tests on ovariectomized rats (pQCT and bone strength); assay type: in vivo, rat; settings: 12 weeks
Experimental: The activity of [[(3-hydroxy-2-pyridyl)amino]methylidene]bisphosphonic acid tetraethylester (TC) has been tested in ovariectornized rats. In the said tests, the compound to be tested was administered to six-month old rats. The control rats were sham-operated or overiectomized and given vehicle. The compound was given to ovariectomized rats orally 7 days a week for 12 weeks beginning immediately after the surgery. The doses were 10, 50 and 100 mg/kg/day. At the end of the study, the mineral density and the geometry of the bone was measured with pQCT (peripheral quantitative computed tomography). The strength of the bone was measured with electromechanical materials testing machine. The sites of measurement were the proximal end of the tibia (not strength), the lumbar vertebra, the femoral neck and the tibial mid-diaphysis. The parameters to be measured were the bone density of the trabecular or cortical bone, the cortical area and strength of the bone.

[4] = tested on: bone metastases of human breast cancer cells in the mouse; assay: Metastasis model in mouse (human breast cancer cells, osteolytic bone lesions); assay type: in vivo; settings: 50 mg/kg/day s.c. for 10 days
Experimental: The effect of the test compound has been tested in a metastasis model in the mouse. 14 days after inoculation with human breast cancer cells, when the radiologically detected osteolytic bone lesions were found, the animals were treated either with PBS (control) or the test compound (50 mg/kg/day, s.c.) for 10 days. At the end of the study, osteoclast number and bone area were measured histomorphometrically.

SMILES: CCOP(=O)(OCC)C(Nc1ncccc1O)P(=O)(OCC)OCC [test compound, [[(3-hydroxy-2-pyridinyl)amino]methylidene]bisphosphonic acid tetraethylester]
- inhibition at 1 µM ([1]; Mus musculus, Osteoclast, at 10^-6 M): 60%
- TRAP-positive MNC formation ([1]; at 10^-5 M): inhibit completely
- toxic effect on other cells ([1]; at 10^-5 M): without having toxic effect on other cells
- 1,25(OH)2D3- and PTH-induced osteoclast formation ([1]; bone marrow culture, concentration range 10^-10-10^-5 M): dose dependently inhibited
- inhibition at 1 µM ([2]; Mus musculus, Osteoclast, at 10^-6 M concentration): 60%
- TRAP-positive MNC formation ([2]; at 10^-5 M): completely blocked
- osteoclast-like cell formation (TRAP-positive MNC or mononuclear cells) ([2]; at 10^-5 M, data not shown): totally blocked
- inhibition of osteoclast formation ([2]; compound present on days 4-6): approximately 40%
- inhibition of osteoclast formation ([2]; compound present only at days 1-3): more than 60%
- osteoclast formation in spleen cell culture ([2]; concentration range 10^-10-10^-5 M): dose dependently inhibited
- support of osteoclast formation by treated preosteoblasts [3]: supported osteoclast formation in the similar manner as non-treated preosteoblasts
- osteoclast-mediated bone resorption (isolated rat osteoclasts; data not shown): did not have any effect
- osteoclast apoptosis (isolated rat osteoclasts; osteoclasts cultured for 1-2 days on bovine bone slices): did not have any effect
- change in the cortical area in the femoral neck caused by ovariectomy (ovariectomized rats; 50 mg/kg/day oral): inhibited the change
- strength of the tibial mid-diaphysis (ovariectomized rats; 50 mg/kg/day oral): improved, although not to a significantly meaningful degree
- cortical area in the tibial mid-diaphysis (ovariectomized rats; 50 mg/kg/day oral, compared to a normal rat and an ovariectomized rat): increase of the cortical area
- change in the trabecular density in the femoral neck caused by ovariectomy (ovariectomized rats; 100 mg/kg/day oral): inhibited the change
- area of the cortical bone in the lumbar vertebra, reduction by ovariectomy (ovariectomized rats; 50 and 100 mg/kg/day oral): inhibit these changes
- density of the trabecular bone in the lumbar vertebra, reduction by ovariectomy (ovariectomized rats; 50 and 100 mg/kg/day oral): inhibit these changes
- strength of the cortical bone in the lumbar vertebra, reduction by ovariectomy (ovariectomized rats; 50 and 100 mg/kg/day oral): inhibit these changes
- thickness of the cortical bone (pQCT), reduction caused by ovariectomy (ovariectomized rats; oral, FIG. 5 lower row): can be inhibited
- tumor induced decrease in bone area at the site of metastases [4]: inhibited
- number of osteoclasts at the tumor-bone interface ([4]; compared to PBS control): decreased significantly
